For the series, the system named is obese diabetic mice of the Umeå ob/ob strain. Kind of series: Biological activity in obese diabetic ob/ob mice (plasma glucose, insulin, triglycerides; weight gain). The series is classed as in vivo. How it is done:
The biological activity of the compound of the invention was tested in obese diabetic mice of the Umeå ob/ob strain. Groups of mice received the test compound by gavage once daily for 7 days. On the last day of the experiment the animals were anesthetized 2 h after dose in a non-fed state and blood was collected from an incised artery. Plasma was analyzed for concentration of glucose, insulin and triglycerides. A group of untreated obese diabetic mice of the same age served as control. The weights of the mice were measured before and after the experiment and the obtained weight gains were compared to the weight gains of the control animals. The individual values for glucose, insulin and triglyceride levels of the mice from the test group were expressed as the percentage rage of the corresponding values from the control group. The desired “therapeutic effect” was calculated as the average percent reduction of the three variables glucose, insulin and triglycerides below the levels in the control animals. The therapeutic effect of the tested compounds according to the invention was compared to the same effect in the prior art compound troglitazone, administrered by gavage in the oral dose of 100 μmol/kg for 7 days.

For the compound `CCO[C@@H](Cc1ccc(OCCc2ccc(NC(=O)OC(C)(C)C)cc2)cc1)C(=O)O` [compound of the invention, 3-{4-[2-(4-tert-Butoxycarbonylaminophenyl)ethoxy]phenyl}-(S)-2-ethoxy propanoic acid], the “therapeutic effect (average percent reduction of glucose, insulin and triglycerides below the levels in the control animals)” value (gavage once daily for 7 days, compared to troglitazone in the same oral dose (100 μmol/kg for 7 days)) is listed as “superior effects”. Also, the weight gain result (weights measured before and after the 7-day experiment, compared to control animals) is recorded as “without undesirable weight gain”.

The record behind these values is US6362360B1, “3-aryl-2-hydroxypropionic acid derivative III” (AstraZeneca AB, priority 1998, dated 2002).
